Results: US20250084096A1, “TERT-BUTYL (S)-2-(4-(PHENYL)-6H-THIENO[3, 2-F][1, 2, 4]TRIAZOLO[4, 3-A] [1,4]DIAZEPIN-6-YL) ACETATE DERIVATIVES AND RELATED COMPOUNDS AS BROMODOMAIN BRD4 INHIBITORS FOR TREATING CANCER” (Genentech, Inc., priority 2018, published 2025)

Columns and labels:
BRD4_BD1 bromodomain = BRD4_BD1 bromodomain (Homo sapiens (Human), UniProt O60885); assay: BRD4 BD1 biochemical binding assay (TR-FRET); settings: displacement of biotinylated ligand Compound C
Experimental: (§1) The following assay was used to measure the IC50 for the test compounds ability to bind to the BRD4_BD1 and BRD4_BD2 bromodomains.
(§2) DMSO was backfilled to a final volume of 30 nL as required. […] 1× Assay Buffer was dispensed (5 μL per well) into Minimum Signal control wells. 5 μL of Solution A-3× was dispensed into test wells and Maximum Signal control wells (containing DMSO instead of test compound). Samples were incubated 10 minutes at room temperature. 5 μL of Solution B-3x was dispensed into all wells. Samples were incubated incubate for 10 minutes at room temperature. 5 μL of Solution C-3x was dispensed into all wells. Samples were incubated 40 minutes at room temperature. Plates were read using an Envision (Perkin Elmer) with the following settings: Detection—LANCE Dual Laser 50/200. […] Percentage inhibition was calculated relative to the Minimum Signal control and Maximum Signal control wells. IC50 values were derived by four parameter curve fitting using the Robust method.

BRD4 [1] = target: T1, BRD4 (Homo sapiens (Human), UniProt O60885); assay: BRD4 degradation assay in PC3-Steap1 cells; type: cell-based
Experimental: 2 μL of each sample from the serial dilution was transferred to 98 μL of assay media as an intermediate dilution. 5 μL of intermediate dilution was added to 45 μL of cell plate. Columns 1, 2, 23 and 24 were treated with only 0.2% w/v final concentration of DMSO for data normalization as “neutral controls”. After compound treatment, cell plates were stored in a 37° C. incubator for 4 hours.
Cell plate was incubated at room temperature for 20 minutes. Well contents were aspirated and washed with 100 μL/well PBS 3 times. 50 μL/well of PBS containing 0.5% w/v bovine serum albumen, 0.5% w/v Triton X-100 (Antibody Dilution Buffer) was added to each well. Samples were incubated for 30 minutes. Well contents were aspirated and washed 3 times with 100 μL/well of PBS. PBS was aspirated from the wells.
25 μL per well of BRD4 antibody diluted in buffer was added and incubated overnight at 4° C. On day-3 samples were washed 3 times with 100 μL/well of PBS. […] Samples were incubated for 2 hours at room temperature. Samples were washed 3 times with 100 μL PBS.
(§3) Quantitative fluorescence imaging of BRD4 was carried out using an Opera Phenix High-Content Screening System. […] Hoechst channel was used to identify nuclear region. […] Data analysis was carried out using Genedata Screener, with DMSO and no primary antibody control treated samples being used to define the 0% and 100% changes in BRD4. The dose-response log(inhibitor) vs. response was used to define the inflexion point of curve (IC50) and the plateau of the maximal effect. The Sit value reports degradation as percent change in protein level, so complete loss of the protein target is −100%. Sinf is the maximum degradation achieved, obtained by determining the bottom of a dose-response (where the S-shaped curve levels out).

BRD4_BD2 bromodomain = BRD4_BD2 bromodomain (Homo sapiens (Human), UniProt O60885); assay: BRD4 BD2 biochemical binding assay (TR-FRET); settings: displacement of biotinylated ligand Compound C
Experimental: as §1, §2

MYC expression = assay: Myc mRNA assay in MV-4-11 cells; type: cell-based; settings: for Maximum Inhibition (%) (mean) of MYC expression: 4 hours, QuantiGene 2.0; for IC50: Homo sapiens, MV4-11, 4 hours, QuantiGene 2.0, read-out: Inhibition of MYC expression Average IC50
Experimental: Pharmacologic inhibition of MYC is achievable through targeting BET bromodomains through small molecule binder or degrader mechanisms.
Test compounds diluted in DMSO were transferred to the cell plates, keeping final DMSO concentration consistent at 0.1%, and incubated for 4 hours at 37° C. […] Luminescence was read using an EnVision plate reader (PerkinElmer) and IC50s generated in Genedata Screener using a 4-parameter non-linear regression fit.

BRD4 [2] = target: T1, BRD4; assay: BRD4 degradation assay in EoL-1 cells; type: cell-based
Experimental: 2 μL of each sample from the serial dilution was transferred to 98 μL of assay media as an intermediate dilution. 5 μL of each well of the intermediate dilution was added to 45 μL of cell plate. Columns 1, 2, 23 and 24 were treated with only 0.2% final concentration of DMSO for data normalization as “neutral controls”. After compound treatment, cell plates were stored in a 37° C. incubator for 4 hours.
The cell plate was incubated at room temperature for 20 minutes. Well contents were aspirated and washed with 100 μL/well PBS 3 times. 50 μL/well of PBS (pH7.5) containing 0.5% w/v bovine serum albumen, 0.5% w/v Triton X-100 (Block/Permeabilzation Buffer) was added to each well. Samples were incubated for 20 minutes. Well contents were aspirated and washed 3 times with 100 μL/well of PBS. PBS was aspirated from the well and 50 μL per well of EoL-1 Block Buffer (PBS containing 10% Normal Goat Serum (Abcam #ab7481)) was added to each well. Plates were incubated at room temperature for 30 minutes. Block buffer was decanted from the wells.
25 μL per well of BRD4 antibody diluted in buffer was added and incubated overnight at 4° C. On day-2 samples were washed 3 times with 100 μL/well of PBS. […] Samples were incubated for 2 hours at room temperature. Samples were washed 3 times with 100 μL PBS.
as §3, with “Sinf” for “Sit”

[3] = 4 hours, immunofluorescence, read-out: Degradation of BRD4 Average EC50
[4] = read-out: Degradation of BRD4 Average EC50, 4 hours, immunofluorescence

CC(=O)NCC#Cc1ccc(C2=N[C@@H](CC(=O)OC(C)(C)C)c3nnc(C)n3-c3sc(C)c(C)c32)cc1 [Compound 10a, tert-butyl (S)-2-(4-(4-(3-acetamidoprop-1-yn-1-yl)phenyl)-2,3,9-trimethyl-6H-thieno[3,2-f][1,2,4]triazolo[4,3-a][1,4]diazepin-6-yl)acetate]
IC50 (BRD4_BD1 bromodomain): 6.6 nM | DC50 (BRD4 [1]; [3]): > 20000 nM | IC50 (BRD4_BD2 bromodomain): 10.7 nM | Maximum Inhibition (%) (mean) of MYC expression (MYC expression): 79.3% | IC50 (MYC expression): 7.1 nM | DC50 (BRD4 [2]; [3]): > 20000 nM

CC#Cc1ccc(C2=N[C@@H](CC(=O)OC(C)(C)C)c3nnc(C)n3-c3sc(C)c(C)c32)cc1 [Compound 14a, tert-butyl (S)-2-(2,3,9-trimethyl-4-(4-(prop-1-yn-1-yl)phenyl)-6H-thieno[3,2-f][1,2,4]triazolo[4,3-a][1,4]diazepin-6-yl)acetate]
IC50 (BRD4_BD1 bromodomain): 18.8 nM | DC50 (BRD4 [1]; [4]): > 20000 nM | IC50 (BRD4_BD2 bromodomain): 20.3 nM | Maximum Inhibition (%) (mean) of MYC expression (MYC expression): 73.6% | IC50 (MYC expression): 97.2 nM | DC50 (BRD4 [2]; [4]): > 20000 nM

CCC#Cc1ccc(C2=N[C@@H](CC(=O)OC(C)(C)C)c3nnc(C)n3-c3sc(C)c(C)c32)cc1 [Compound 13a, tert-butyl (S)-2-(4-(4-(but-1-yn-1-yl)phenyl)-2,3,9-trimethyl-6H-thieno[3,2-f][1,2,4]triazolo[4,3-a][1,4]diazepin-6-yl)acetate]
IC50 (BRD4_BD1 bromodomain): 23.4 nM | DC50 (BRD4 [1]; [4]): > 20000 nM | IC50 (BRD4_BD2 bromodomain): 28.7 nM | Maximum Inhibition (%) (mean) of MYC expression (MYC expression): 71.6% | IC50 (MYC expression): 162 nM | DC50 (BRD4 [2]; [4]): > 20000 nM

Cc1sc2c(c1C)C(c1ccc(C#CCN(C)C)cc1)=N[C@@H](CC(=O)OC(C)(C)C)c1nnc(C)n1-2 [Compound 3a, tert-butyl (S)-2-(4-(4-(3-(dimethylamino)prop-1-yn-1-yl)phenyl)-2,3,9-trimethyl-6H-thieno[3,2-f][1,2,4]triazolo[4,3-a][1,4]diazepin-6-yl)acetate]
IC50 (BRD4_BD1 bromodomain): 14.5 nM | Dmax (BRD4 [1]; 4 hours, complete loss = −100%, read-out: Sinf (maximum degradation, percent change in protein level)): -41.9% | DC50 (BRD4 [1]; [3]): > 20000 nM | IC50 (BRD4_BD2 bromodomain): 20.7 nM | Maximum Inhibition (%) (mean) of MYC expression (MYC expression): 78.7% | IC50 (MYC expression): 11.7 nM | DC50 (BRD4 [2]; [3]): > 20000 nM
